Measurements taken from US20200239530A1, “COMPOUNDS AND METHODS OF MODULATING PROTEIN DEGRADATION” (Vividion Therapeutics, Inc., priority 2017, published 2020).

Molecular target: T1, DDX20 Probable ATP-dependent RNA helicase DDX20 (Homo sapiens, UniProt Q9UHI6)
T1 construct: 200 μL of lysate containing 5 mg/ml proteome was treated with 2 μL of 100× compound stock; endogenous in cells
T1 sequence (Q9UHI6 1-824): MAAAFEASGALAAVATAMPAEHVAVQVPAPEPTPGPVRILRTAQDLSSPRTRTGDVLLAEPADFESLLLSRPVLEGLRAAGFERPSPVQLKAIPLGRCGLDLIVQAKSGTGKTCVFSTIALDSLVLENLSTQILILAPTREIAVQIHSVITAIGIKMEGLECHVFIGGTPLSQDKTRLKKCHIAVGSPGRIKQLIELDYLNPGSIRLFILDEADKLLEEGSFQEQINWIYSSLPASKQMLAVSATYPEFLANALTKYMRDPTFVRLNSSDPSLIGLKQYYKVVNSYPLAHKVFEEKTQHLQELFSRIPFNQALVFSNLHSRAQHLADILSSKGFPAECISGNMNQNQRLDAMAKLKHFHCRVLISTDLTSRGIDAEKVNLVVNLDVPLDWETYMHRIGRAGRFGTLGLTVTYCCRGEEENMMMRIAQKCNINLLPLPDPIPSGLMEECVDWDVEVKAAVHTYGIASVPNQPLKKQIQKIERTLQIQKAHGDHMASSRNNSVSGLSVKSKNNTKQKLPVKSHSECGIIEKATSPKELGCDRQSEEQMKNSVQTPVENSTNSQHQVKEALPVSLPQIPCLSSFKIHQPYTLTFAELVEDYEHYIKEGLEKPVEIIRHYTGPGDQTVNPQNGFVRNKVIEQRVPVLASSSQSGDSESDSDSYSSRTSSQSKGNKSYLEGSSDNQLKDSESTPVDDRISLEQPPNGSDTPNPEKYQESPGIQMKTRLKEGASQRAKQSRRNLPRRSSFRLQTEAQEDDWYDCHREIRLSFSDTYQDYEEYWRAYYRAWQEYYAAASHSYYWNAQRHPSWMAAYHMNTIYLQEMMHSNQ
Test: Cysteine liganding, probe competition
Assay type: binding
Outline: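 Lysates from probe-sonicated cells in PBS (5 mg/ml proteome) were exposed to compound for 1 hr at 25° C, then labelled with desthiobiotin iodoacetamide probe (10 mM stock) for 1 hr at 25° C. Probe-tagged peptides were streptavidin-enriched after trypsin digestion.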

| Compound | Liganded (DDX20 Res# 577, uniprot Q9UHI6) | 100 Max (uniprot Q9UHI6) | 100 ave (uniprot Q9UHI6) | 500 Max (uniprot Q9UHI6) | 500 ave (uniprot Q9UHI6) |
| --- | --- | --- | --- | --- | --- |
| COc1ccc2c(c1)CCCN2C(=O)CCl [KB02] | YES |  |  |  |  |
| O=C(CCl)Nc1cc(C(F)(F)F)cc(C(F)(F)F)c1 [KBO3] |  | 0.85 | −6.7225 | 37.31 | 31.49 |
